# How the values were obtained:
# [1] = target: T1, EGFR T790M/L858R (NCI-H1975 cells) (Homo sapiens, UniProt P00533, L858R/T790M); experiment: EGFR (L858R) degradation analysis, Total EGFR (L858R) HTRF, NCI-H1975 cells; assay type: cell-based; details: 6 hours
# T1 construct: NCI-H1975 (harboring EGFR heterozygous T790M/L858R mutations); host or cells: NCI-H1975
# Method in brief: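 Cells (10000/well NCI-H1975 and NCI-H1975+CS, 1000/well NCI-H3255) treated with 11-point half-log titrations from 10 μM top, in duplicate, for 6 hours at 37° C., 5% CO2. Total EGFR (L858R) quantified by HTRF FRET; untreated cells as negative and cell-free wells as positive control.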
# [2] = target: T2, EGFR L858R (NCI-H3255 cells) (Homo sapiens, UniProt P00533, L858R); experiment: EGFR (L858R) degradation analysis, Total EGFR (L858R) HTRF, NCI-H3255 cells; assay type: cell-based; details: 6 hours
# T2 construct: NCI-H3255 (harboring EGFR heterozygous L858R mutation); host or cells: NCI-H3255
# T2 sequence (P00533 25-1210 L858R): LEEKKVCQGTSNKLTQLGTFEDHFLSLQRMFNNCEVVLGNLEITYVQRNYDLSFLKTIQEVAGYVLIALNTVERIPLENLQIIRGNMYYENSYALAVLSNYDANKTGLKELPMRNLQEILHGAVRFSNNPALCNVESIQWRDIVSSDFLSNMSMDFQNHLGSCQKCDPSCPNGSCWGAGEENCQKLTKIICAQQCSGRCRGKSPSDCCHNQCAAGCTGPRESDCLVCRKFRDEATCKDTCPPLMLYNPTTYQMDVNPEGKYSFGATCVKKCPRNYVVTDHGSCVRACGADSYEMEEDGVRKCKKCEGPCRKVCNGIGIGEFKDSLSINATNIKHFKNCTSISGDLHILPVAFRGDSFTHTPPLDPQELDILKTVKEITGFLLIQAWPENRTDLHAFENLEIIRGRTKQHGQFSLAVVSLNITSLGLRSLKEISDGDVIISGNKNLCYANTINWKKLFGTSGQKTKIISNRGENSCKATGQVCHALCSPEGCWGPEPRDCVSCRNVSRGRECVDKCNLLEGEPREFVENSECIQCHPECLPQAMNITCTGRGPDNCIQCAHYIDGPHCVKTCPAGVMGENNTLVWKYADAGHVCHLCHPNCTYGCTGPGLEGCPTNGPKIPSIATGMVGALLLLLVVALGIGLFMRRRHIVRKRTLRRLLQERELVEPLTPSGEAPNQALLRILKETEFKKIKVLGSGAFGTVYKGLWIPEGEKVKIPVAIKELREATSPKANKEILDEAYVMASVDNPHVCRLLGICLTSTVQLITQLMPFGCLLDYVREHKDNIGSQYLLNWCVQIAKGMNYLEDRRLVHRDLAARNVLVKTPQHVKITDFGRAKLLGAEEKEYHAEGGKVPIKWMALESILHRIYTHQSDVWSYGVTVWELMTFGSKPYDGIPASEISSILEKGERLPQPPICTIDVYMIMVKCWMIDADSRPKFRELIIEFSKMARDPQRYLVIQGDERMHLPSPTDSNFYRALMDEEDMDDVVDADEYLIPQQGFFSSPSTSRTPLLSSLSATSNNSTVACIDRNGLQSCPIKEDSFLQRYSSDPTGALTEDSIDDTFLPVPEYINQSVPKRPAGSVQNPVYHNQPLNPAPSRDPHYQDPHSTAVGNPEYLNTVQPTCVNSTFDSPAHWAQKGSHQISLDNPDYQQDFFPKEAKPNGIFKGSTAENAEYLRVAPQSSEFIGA
# From the text: NCI-H1975 (harboring EGFR heterozygous T790M/L858R mutations) and NCI-H3255 (harboring EGFR heterozygous L858R mutation) were purchased from ATCC and NCI, respectively. NCI-H1975+CS (harboring EGFR heterozygous T/790M/L858R/C797S mutations) was generated using CRISPR technology to introduce the additional C797S mutation by Horizon Discovery. RPMI 1640 no-phenol red medium and fetal bovine serum (FBS) were purchased from Gibco (Grand Island, NY, USA). Cell culture flasks and 384-well microplates were acquired from VWR (Radnor, PA, USA). Total EGFR (L858R) HTRF assay kits were purchased from Cisbio (Bedford, MA, USA).
# Degradation of EGFR protein containing L858R mutation was determined based on quantification of FRET signal using Total EGFR (L858R) HTRF assay kit. Test compounds were added to the 384-well plate from a top concentration of 10 μM with 11 points, half log titration in duplicates. NCI-H1975, NCI-H1975+CS or NCI-H3255 cells were added into 384-well plates at a cell density of 10000, 10000 or 1000 cells per well, respectively. The plates were kept at 37° C. with 5% CO2 for 6 hours. Cells treated in the absence of the test compound were the negative control. Positive control was set by wells containing all reagents but no cells. FRET signal was acquired on EnVision™ Multilabel Reader (PerkinElmer, Santa Clara, CA, USA).
# T1 sequence (P00533 25-1210 T790M/L858R): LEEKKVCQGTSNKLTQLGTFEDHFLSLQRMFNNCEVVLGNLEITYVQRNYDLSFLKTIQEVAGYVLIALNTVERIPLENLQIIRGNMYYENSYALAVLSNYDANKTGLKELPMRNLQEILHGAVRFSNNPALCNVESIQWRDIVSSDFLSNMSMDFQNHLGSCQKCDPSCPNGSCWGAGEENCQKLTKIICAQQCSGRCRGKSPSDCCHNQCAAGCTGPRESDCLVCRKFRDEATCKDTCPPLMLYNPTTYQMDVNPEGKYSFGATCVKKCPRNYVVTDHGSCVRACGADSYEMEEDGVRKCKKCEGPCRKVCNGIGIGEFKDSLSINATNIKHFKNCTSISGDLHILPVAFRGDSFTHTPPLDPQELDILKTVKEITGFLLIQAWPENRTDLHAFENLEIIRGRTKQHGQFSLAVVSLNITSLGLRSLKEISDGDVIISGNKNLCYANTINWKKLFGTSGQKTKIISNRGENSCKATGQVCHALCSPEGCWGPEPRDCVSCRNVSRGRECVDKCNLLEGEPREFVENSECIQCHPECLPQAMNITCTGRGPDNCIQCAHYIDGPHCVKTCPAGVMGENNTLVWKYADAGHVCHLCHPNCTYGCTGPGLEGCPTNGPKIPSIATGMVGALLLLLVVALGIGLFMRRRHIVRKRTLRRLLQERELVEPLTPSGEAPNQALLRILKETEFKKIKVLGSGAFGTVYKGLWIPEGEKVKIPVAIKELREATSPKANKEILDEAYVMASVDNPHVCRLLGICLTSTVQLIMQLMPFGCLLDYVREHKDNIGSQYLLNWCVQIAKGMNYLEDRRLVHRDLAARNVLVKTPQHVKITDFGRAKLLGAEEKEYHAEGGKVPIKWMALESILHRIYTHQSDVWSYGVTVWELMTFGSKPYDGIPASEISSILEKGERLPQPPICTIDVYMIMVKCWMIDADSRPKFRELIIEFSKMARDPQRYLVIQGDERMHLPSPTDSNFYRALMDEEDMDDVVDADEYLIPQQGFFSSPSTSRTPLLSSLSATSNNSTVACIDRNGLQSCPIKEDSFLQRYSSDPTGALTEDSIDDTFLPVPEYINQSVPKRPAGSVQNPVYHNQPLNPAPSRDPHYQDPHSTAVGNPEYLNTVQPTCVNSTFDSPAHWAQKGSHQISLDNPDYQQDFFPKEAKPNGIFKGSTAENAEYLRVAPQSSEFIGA
DC50 [1] [nM],DC50 [2] [nM],SMILES
36,20,"O=C1CC[C@H](Nc2ccc(C3CCN(CC(=O)N4CCN(c5ccc(-c6cc(F)c7c(c6)C(=O)N(C(C(=O)Nc6nccs6)c6ncn8c6CCC8)C7)cn5)CC4)CC3)c(F)c2)C(=O)N1 (stereo partly drawn) [Compound 27, 2-(6,7-dihydro-5H-pyrrolo[1,2-c]imidazol-1-yl)-2-[6-[6-[4-[2-[4-[4-[[(3S)-2,6-dioxo-3-piperidyl]amino]-2-fluoro-phenyl]-1-piperidyl]acetyl]piperazin-1-yl]-3-pyridyl]-4-fluoro-1-oxo-isoindolin-2-yl]-N-thiazol-2-yl-acetamide]"
16,17,"O=C1CC[C@H](Nc2ccc(C3CCN(CC(=O)N4CCC(n5cc(-c6cc(F)c7c(c6)C(=O)N(C(C(=O)Nc6nccs6)c6ncn8c6CCC8)C7)cn5)CC4)CC3)cc2)C(=O)N1 (stereo partly drawn) [Compound 28, 2-(6,7-dihydro-5H-pyrrolo[1,2-c]imidazol-1-yl)-2-[6-[1-[1-[2-[4-[4-[[(3S)-2,6-dioxo-3-piperidyl]amino]phenyl]-1-piperidyl]acetyl]-4-piperidyl]pyrazol-4-yl]-4-fluoro-1-oxo-isoindolin-2-yl]-N-thiazol-2-yl-acetamide]"
24,20,"O=C1CC[C@H](Nc2ccc(C3CCN(CC(=O)N4CCC(c5cnn(-c6cc(F)c7c(c6)C(=O)N(C(C(=O)Nc6nccs6)c6ncn8c6CCC8)C7)c5)CC4)CC3)cc2)C(=O)N1 (stereo partly drawn) [Compound 29, 2-(6,7-dihydro-5H-pyrrolo[1,2-c]imidazol-1-yl)-2-[6-[4-[1-[2-[4-[4-[[(3S)-2,6-dioxo-3-piperidyl]amino]phenyl]-1-piperidyl]acetyl]-4-piperidyl]pyrazol-1-yl]-4-fluoro-1-oxo-isoindolin-2-yl]-N-thiazol-2-yl-acetamide]"
15,35,"O=C1CC[C@H](Nc2ccc(C3CCN(CC(=O)N4CCC(n5cc(-c6cc(F)c7c(c6)C(=O)N(C(C(=O)Nc6nccs6)c6ncn8c6CCC8)C7)nn5)CC4)CC3)cc2)C(=O)N1 (stereo partly drawn) [Compound 30, 2-(6,7-dihydro-5H-pyrrolo[1,2-c]imidazol-1-yl)-2-(6-(1-(1-(2-(4-(4-(((S)-2,6-dioxopiperidin-3-yl)amino)phenyl)piperidin-1-yl)acetyl)piperidin-4-yl)-1H-1,2,3-triazol-4-yl)-4-fluoro-1-oxoisoindolin-2-yl)-N-(thiazol-2-yl)acetamide]"
21,14,"O=C1CCC(Nc2ccc(C3CCN(C(=O)C(=O)N4CCC(Oc5ccc(-c6cc(F)c7c(c6)C(=O)N(C(C(=O)Nc6nccs6)c6ncn8c6CCC8)C7)cc5)CC4)CC3)cc2)C(=O)N1 (stereo not shown) [Compound 40, 2-(6,7-dihydro-5H-pyrrolo[1,2-c]imidazol-1-yl)-2-[6-[4-[[1-[2-[4-[4-[(2,6-dioxo-3-piperidyl)amino]phenyl]-1-piperidyl]-2-oxo-acetyl]-4-piperidyl]oxy]phenyl]-4-fluoro-1-oxo-isoindolin-2-yl]-N-thiazol-2-yl-acetamide]"
14,16,"Cn1nc(N2CCC(=O)NC2=O)c2ccc(C3CCN(CC(=O)N4CCN(c5ccc(-c6cc(F)c7c(c6)C(=O)N(C(C(=O)Nc6nccs6)c6ncn8c6C[C@@H](F)C8)C7)cc5)CC4)CC3)cc21 (stereo partly drawn) [Compound 45, 2-[6-[4-[4-[2-[4-[3-(2,4-dioxohexahydropyrimidin-1-yl)-1-methyl-indazol-6-yl]-1-piperidyl]acetyl]piperazin-1-yl]phenyl]-4-fluoro-1-oxo-isoindolin-2-yl]-2-[(6R)-6-fluoro-6,7-dihydro-5H-pyrrolo[1,2-c]imidazol-1-yl]-N-thiazol-2-yl-acetamide]"
51,51,"O=C1CC[C@H](Nc2ccc(C3CCN(CC(=O)N4CC5(CCN(c6ccc(-c7cc(F)c8c(c7)C(=O)N(C(C(=O)Nc7nccs7)c7ncn9c7CCC9)C8)cc6)CC5)C4)CC3)c(F)c2)C(=O)N1 (stereo partly drawn) [Compound 46, 2-(6,7-dihydro-5H-pyrrolo[1,2-c]imidazol-1-yl)-2-(6-(4-(2-(2-(4-(4-(((S)-2,6-dioxopiperidin-3-yl)amino)-2-fluorophenyl)piperidin-1-yl)acetyl)-2,7-diazaspiro[3.5]nonan-7-yl)phenyl)-4-fluoro-1-oxoisoindolin-2-yl)-N-(thiazol-2-yl)acetamide]"
18,10,"Cn1nc(N2CCC(=O)NC2=O)c2ccc(C3CCN(CC(=O)N4CC5(C4)CN(c4ccc(-c6cc(F)c7c(c6)C(=O)N(C(C(=O)Nc6nccs6)c6ncn8c6CCC8)C7)cc4)C5)CC3)cc21 (stereo not shown) [Compound 49, 2-(6,7-dihydro-5H-pyrrolo[1,2-c]imidazol-1-yl)-2-[6-[4-[2-[2-[4-[3-(2,4-dioxohexahydropyrimidin-1-yl)-1-methyl-indazol-6-yl]-1-piperidyl]acetyl]-2,6-diazaspiro[3.3]heptan-6-yl]phenyl]-4-fluoro-1-oxo-isoindolin-2-yl]-N-thiazol-2-yl-acetamide]"
64,37,"O=C1CC[C@H](Nc2ccc(C3CCN(CC(=O)N4CC5(C4)CN(c4ccc(-c6cc(F)c7c(c6)C(=O)N(C(C(=O)Nc6ccccn6)c6ncn8c6CCC8)C7)cc4)C5)CC3)c(F)c2)C(=O)N1 (stereo partly drawn) [Compound 53, 2-(6,7-dihydro-5H-pyrrolo[1,2-c]imidazol-1-yl)-2-[6-[4-[2-[2-[4-[4-[[(3S)-2,6-dioxo-3-piperidyl]amino]-2-fluoro-phenyl]-1-piperidyl]acetyl]-2,6-diazaspiro[3.3]heptan-6-yl]phenyl]-4-fluoro-1-oxo-isoindolin-2-yl]-N-(2-pyridyl)acetamide]"
20,14,"O=C1CCC(Nc2ccc(C3CCN(CC(=O)N4CCN(Cc5ccc(-c6cc(F)c7c(c6)C(=O)N(C(C(=O)Nc6nccs6)c6ncn8c6CCC8)C7)cc5)CC4)CC3)cc2)C(=O)N1 (stereo not shown) [Compound 56, 2-(6,7-dihydro-5H-pyrrolo[1,2-c]imidazol-1-yl)-2-[6-[4-[[4-[2-[4-[4-[(2,6-dioxo-3-piperidyl)amino]phenyl]-1-piperidyl]acetyl]piperazin-1-yl]methyl]phenyl]-4-fluoro-1-oxo-isoindolin-2-yl]-N-thiazol-2-yl-acetamide]"
52,28,"O=C1CC[C@H](Nc2ccc(C3CCN(CC(=O)N4CCC(Cc5ccc(-c6cc(F)c7c(c6)C(=O)N(C(C(=O)Nc6nccs6)c6ncn8c6CCC8)C7)cc5)CC4)CC3)c(F)c2)C(=O)N1 (stereo partly drawn) [Compound 60, 2-(6,7-dihydro-5H-pyrrolo[1,2-c]imidazol-1-yl)-2-[6-[4-[[1-[2-[4-[4-[[(3S)-2,6-dioxo-3-piperidyl]amino]-2-fluoro-phenyl]-1-piperidyl]acetyl]-4-piperidyl]methyl]phenyl]-4-fluoro-1-oxo-isoindolin-2-yl]-N-thiazol-2-yl-acetamide]"
33,31,"O=C1CCC(Nc2ccc(C3CCN(CC(=O)N4CCN(c5ccc(-c6cc(F)c7cn(C(C(=O)Nc8nccs8)c8ncn9c8CCC9)nc7c6)cn5)CC4)CC3)nc2)C(=O)N1 (stereo not shown) [Compound 66, 2-(6,7-dihydro-5H-pyrrolo[1,2-c]imidazol-1-yl)-2-[6-[6-[4-[2-[4-[5-[(2,6-dioxo-3-piperidyl)amino]-2-pyridyl]-1-piperidyl]acetyl]piperazin-1-yl]-3-pyridyl]-4-fluoro-indazol-2-yl]-N-thiazol-2-yl-acetamide]"
27,50,"Cn1nc(N2CCC(=O)NC2=O)c2ccc(C3CCN(CC(=O)N4CCN(c5ccc(-c6cc(F)c7cn(C(C(=O)Nc8nccs8)c8ncn9c8CCC9)nc7c6)cn5)CC4)CC3)cc21 (stereo not shown) [Compound 67, 2-(6,7-dihydro-5H-pyrrolo[1,2-c]imidazol-1-yl)-2-[6-[6-[4-[2-[4-[3-(2,4-dioxohexahydropyrimidin-1-yl)-1-methyl-indazol-6-yl]-1-piperidyl]acetyl]piperazin-1-yl]-3-pyridyl]-4-fluoro-indazol-2-yl]-N-thiazol-2-yl-acetamide]"
28,34,"O=C1CC[C@H](Nc2ccc(C3CCN(CC(=O)N4CCN(c5ccc(-c6cc(F)c7cn(C(C(=O)Nc8nccs8)c8ncn9c8CCC9)nc7c6)cn5)CC4)CC3)c(F)c2)C(=O)N1 (stereo partly drawn) [Compound 68, 2-(6,7-dihydro-5H-pyrrolo[1,2-c]imidazol-1-yl)-2-(6-(6-(4-(2-(4-(4-(((S)-2,6-dioxopiperidin-3-yl)amino)-2-fluorophenyl)piperidin-1-yl)acetyl)piperazin-1-yl)pyridin-3-yl)-4-fluoro-2H-indazol-2-yl)-N-(thiazol-2-yl)acetamide]"
